Values after ≈ are worked out from the molar mass of the structure shown. Read-outs that look alike come from different tables or passages of the source.
How the values were obtained:
Serr. mar. = assay: in vitro MIC in BHI broth, Serr. mar.; assay type: cell-based
Description: (§1) Generally twelve 2 fold dilutions of the test compound are employed, with initial concentration of the test drug being in the range of 50 to 200 mcg./ml.
(§2) The susceptibility (MIC) of the test organism is accepted as the lowest concentration of compound capable of producing complete inhibition of growth as judged by the naked eye.

Ent. cloac. = assay: in vitro MIC in BHI broth, Ent. cloac.; assay type: cell-based
Description: as §1, §2

Kleb. oxy. = assay: in vitro MIC in BHI broth, Kleb. oxy.; assay type: cell-based
Description: as §1, §2

Past. mult. = assay: in vitro MIC in BHI broth, Past. mult.; assay type: cell-based
Description: as §1, §2

Prov. strua. = assay: in vitro MIC in BHI broth, Prov. strua.; assay type: cell-based
Description: as §1, §2

Strep. faec. = assay: in vitro MIC in BHI broth, Strep. faec.; assay type: cell-based
Description: as §1, §2

Neiss. sic. = assay: in vitro MIC in BHI broth, Neiss. sic.; assay type: cell-based
Description: as §1, §2

Kleb. pn. = assay: in vitro MIC in BHI broth, Kleb. pn.; assay type: cell-based
E. Coli = assay: in vitro MIC in BHI broth, E. Coli; assay type: cell-based; conditions: Escherichia coli
Staph. aur. = assay: in vitro MIC in BHI broth, Staph. aur.; assay type: cell-based
Description: as §1, §2

H. influ. = assay: in vitro MIC in BHI broth, H. influ.; assay type: cell-based
Description: as §1, §2

Ent. aerog. = assay: in vitro MIC in BHI broth, Ent. aerog.; assay type: cell-based
Strep. pyog. = assay: in vitro MIC in BHI broth, Strep. pyog.; assay type: cell-based
Description: as §1, §2

Staph. epi = assay: in vitro MIC in BHI broth, Staph. epi; assay type: cell-based
Description: as §1, §2

[1] = serum levels after oral dosage (micro-biological bioassay) in mice; assay type: in vivo
Method: Additionally, compound (II) is tested in vivo by the well-known mouse protection test, or by a micro-biological (bioassay) determination of serum levels in a variety of mammals (e.g., mouse, rat, dog).

[2] = tested on: erythromycin A and D susceptible organisms and Gram negative microorganisms resistant to erythromycin A and D; assay: spectrum of antibacterial activity; assay type: cell-based
Description: as §1

[3] = Serr. mar. 017, BHI broth, read-out: MIC
[4] = Ent. cloac. 009, BHI broth, read-out: MIC
[5] = Kleb. oxy. 024, BHI broth, read-out: MIC
[6] = Past. mult. 001, BHI broth, read-out: MIC
[7] = Prov. strua. 013, BHI broth, read-out: MIC
[8] = Kleb. pn. 009, BHI broth, read-out: MIC
[9] = Ent. aerog. 040, BHI broth, read-out: MIC
[10] = Strep. pyog. 203, BHI broth, read-out: MIC
[11] = Staph. epi 111, BHI broth, read-out: MIC
[12] = Neiss. sic. 000, BHI broth, read-out: MIC

| Compound | MIC (Serr. mar.; [3]) [µg/mL] | MIC (Ent. cloac.; [4]) [µg/mL] | MIC (Kleb. oxy.; [5]) [µg/mL] | MIC (Past. mult.; [6]) [µg/mL] | MIC (Prov. strua.; [7]) [µg/mL] | MIC (Neiss. sic.) [µg/mL] | MIC (Kleb. pn.; [8]) [µg/mL] | MIC (Kleb. pn.; Kleb. pn. 031, BHI broth) | MIC (E. Coli; E. Coli 125) [µg/mL] | MIC (E. Coli; E. Coli 129) [µg/mL] | MIC (E. Coli; E. Coli 266) [µg/mL] | MIC (E. Coli; E. Coli 470) [µg/mL] | MIC (Staph. aur.; Staph. aur. 005, read-out: MIC) [µg/mL] | MIC (Staph. aur.; Staph. aur. 052, read-out: MIC) [µg/mL] | MIC (Staph. aur.; Staph. aur. 400) [µg/mL] | MIC (H. influ.; H. influ. 012) [µg/mL] | MIC (H. influ.; H. influ. 036) [µg/mL] | MIC (H. influ.; H. influ. 051) [µg/mL] | MIC (Strep. pyog.; [10]) [µg/mL] | MIC (Staph. epi; [11]) [µg/mL] | further results |
| --- | --- | --- | --- | --- | --- | --- | --- | --- | --- | --- | --- | --- | --- | --- | --- | --- | --- | --- | --- | --- | --- |
| CC[C@H]1OC(=O)[C@H](C)[C@@H](O[C@H]2C[C@@](C)(OC)[C@@H](O)[C@H](C)O2)[C@H](C)[C@@H](O[C@@H]2O[C@H](C)C[C@H](N(C)C)[C@H]2O)[C@](C)(O)C[C@@H](C)C(=O)[C@H](C)[C@@H](O)[C@]1(C)O [(1), Erythromycin A] | > 50 | > 50 | > 50 | 0.78 (≈ 1.06 µM) | > 50 | 3.12 (≈ 4.25 µM) | > 50 | (a) (greater than 50) | > 50 | > 50 | > 50 | 1.56 (≈ 2.13 µM) | 0.05 (≈ 0.0681 µM) | 0.1 (≈ 0.136 µM) | 6.25 (≈ 8.52 µM) | 3.12 (≈ 4.25 µM) | 3.12 (≈ 4.25 µM) | 3.12 (≈ 4.25 µM) | 0.025 (≈ 0.0341 µM) | 0.05 (≈ 0.0681 µM) | MIC (Strep. faec.; Strep. faec. 006, BHI broth, read-out: MIC): 0.39 µg/mL (≈ 0.531 µM); MIC (H. influ.; H. influ. 038): 1.56 µg/mL (≈ 2.13 µM); MIC (H. influ.; H. influ. 042): 3.12 µg/mL (≈ 4.25 µM); MIC (H. influ.; H. influ. 073): 3.12 µg/mL (≈ 4.25 µM); MIC (H. influ.; H. influ. 078): 1.56 µg/mL (≈ 2.13 µM); MIC (H. influ.; H. influ. 081): 3.12 µg/mL (≈ 4.25 µM); MIC (Ent. aerog.; [9]): > 50 µg/mL |
| CC[C@H]1OC(=O)[C@H](C)[C@@H](O[C@H]2C[C@@](C)(O)[C@@H](O)[C@H](C)O2)[C@H](C)[C@@H](O[C@@H]2O[C@H](C)C[C@H](N(C)C)[C@H]2O)[C@](C)(O)C[C@@H](C)CN(C)[C@H](C)[C@@H](O)[C@H]1C [Compound (II), 9-deoxo-9a-methyl-9a-aza-9a-homoerythromycin D] | > 50 | > 50 | 50 (≈ 69.5 µM) | 0.2 (≈ 0.278 µM) | > 50 | – | 50 (≈ 69.5 µM) | 50 micrograms/ml. | 25 (≈ 34.8 µM) | 12.5 (≈ 17.4 µM) | 12.5 (≈ 17.4 µM) | 0.39 (≈ 0.542 µM) | 0.39 (≈ 0.542 µM) | 0.78 (≈ 1.08 µM) | – | – | – | – | 0.025 (≈ 0.0348 µM) | 0.39 (≈ 0.542 µM) | absorption after oral dosage [1]: exceptionally well absorbed; serum levels [1]: exceptionally high and long lasting serum levels; spectrum of antibacterial activity [2]: relatively broad spectrum of antibacterial activity which includes erythromycin A and D susceptible organisms and, in addition, many Gram negative microorganisms resistant to erythromycin A and D; MIC (Neiss. sic.; [12]): 0.78 µg/mL (≈ 1.08 µM); MIC (Staph. aur.; Staph. aur. 400, read-out: MIC): > 50 µg/mL; MIC (H. influ.; H. influ. 012, read-out: MIC): 3.12 µg/mL (≈ 4.34 µM); MIC (H. influ.; H. influ. 036, read-out: MIC): 3.12 µg/mL (≈ 4.34 µM); MIC (H. influ.; H. influ. 038, read-out: MIC): 1.56 µg/mL (≈ 2.17 µM); MIC (H. influ.; H. influ. 042, read-out: MIC): 3.12 µg/mL (≈ 4.34 µM); MIC (H. influ.; H. influ. 051, read-out: MIC): 3.12 µg/mL (≈ 4.34 µM); MIC (H. influ.; H. influ. 073, read-out: MIC): 0.39 µg/mL (≈ 0.542 µM); MIC (H. influ.; H. influ. 078, read-out: MIC): 0.78 µg/mL (≈ 1.08 µM); MIC (H. influ.; H. influ. 081, read-out: MIC): 3.12 µg/mL (≈ 4.34 µM); MIC (Ent. aerog.; [9]): 50 µg/mL (≈ 69.5 µM) |
| CC[C@H]1OC(=O)[C@H](C)[C@@H](O[C@H]2C[C@@](C)(O)[C@@H](O)[C@H](C)O2)[C@H](C)[C@@H](O[C@@H]2O[C@H](C)C[C@H](N(C)C)[C@H]2O)[C@](C)(O)C[C@@H](C)C(=O)[C@H](C)[C@@H](O)[C@H]1C [(2), Erythromycin D] | – | – | – | – | – | 6.25 (≈ 8.88 µM) | – | (a) (greater than 50) | > 50 | > 50 | > 50 | 3.12 (≈ 4.43 µM) | – | – | 6.25 (≈ 8.88 µM) | 25 (≈ 35.5 µM) | 50 (≈ 71 µM) | 12.5 (≈ 17.8 µM) | – | – | MIC (Serr. mar.): > 50 µg/mL; MIC (Ent. cloac.): > 50 µg/mL; MIC (Kleb. oxy.): > 50 µg/mL; MIC (Past. mult.): 6.25 µg/mL (≈ 8.88 µM); MIC (Prov. strua.): > 50 µg/mL; MIC (Strep. faec.): 0.39 µg/mL (≈ 0.554 µM); MIC (Kleb. pn.): > 50 µg/mL; MIC (Staph. aur.; Staph. aur. 005): 0.39 µg/mL (≈ 0.554 µM); MIC (Staph. aur.; Staph. aur. 052): 0.39 µg/mL (≈ 0.554 µM); MIC (H. influ.; H. influ. 038): 25 µg/mL (≈ 35.5 µM); MIC (H. influ.; H. influ. 042): 25 µg/mL (≈ 35.5 µM); MIC (H. influ.; H. influ. 073): 50 µg/mL (≈ 71 µM); MIC (H. influ.; H. influ. 078): 12.5 µg/mL (≈ 17.8 µM); MIC (H. influ.; H. influ. 081): 25 µg/mL (≈ 35.5 µM); MIC (Ent. aerog.): > 50 µg/mL; MIC (Strep. pyog.): 0.025 µg/mL (≈ 0.0355 µM); MIC (Staph. epi): 0.2 µg/mL (≈ 0.284 µM) |
| CC[C@H]1OC(=O)[C@H](C)[C@@H](O[C@H]2C[C@@](C)(OC)[C@@H](O)[C@H](C)O2)[C@H](C)[C@@H](O[C@@H]2O[C@H](C)C[C@H](N(C)C)[C@H]2O)[C@](C)(O)C[C@@H](C)CN(C)[C@H](C)[C@@H](O)[C@]1(C)O [(3), 9-deoxo-9a-methyl-9a-aza-9a-homoerythromycin A] | 50 (≈ 66.8 µM) | 25 (≈ 33.4 µM) | 25 (≈ 33.4 µM) | 0.1 (≈ 0.134 µM) | 50 (≈ 66.8 µM) | – | – | – | – | 6.25 (≈ 8.34 µM) | 6.25 (≈ 8.34 µM) | 0.78 (≈ 1.04 µM) | 0.2 (≈ 0.267 µM) | 0.39 (≈ 0.521 µM) | – | – | – | 1.56 (≈ 2.08 µM) | 0.025 (≈ 0.0334 µM) | 0.1 (≈ 0.134 µM) | MIC (Strep. faec.): 1.56 µg/mL (≈ 2.08 µM); MIC (Neiss. sic.; [12]): 0.39 µg/mL (≈ 0.521 µM); MIC (Staph. aur.; Staph. aur. 400, read-out: MIC): 25 µg/mL (≈ 33.4 µM); MIC (H. influ.; H. influ. 036, read-out: MIC): 0.78 µg/mL (≈ 1.04 µM); MIC (H. influ.; H. influ. 038, read-out: MIC): 0.78 µg/mL (≈ 1.04 µM); MIC (H. influ.; H. influ. 042, read-out: MIC): 0.78 µg/mL (≈ 1.04 µM); MIC (H. influ.; H. influ. 073, read-out: MIC): 0.78 µg/mL (≈ 1.04 µM); MIC (H. influ.; H. influ. 078, read-out: MIC): 0.39 µg/mL (≈ 0.521 µM); MIC (H. influ.; H. influ. 081, read-out: MIC): 0.78 µg/mL (≈ 1.04 µM) |
